Like-named read-outs stand apart in the source and are kept apart here.
Key:
CCNK-luc reporter = assay: CCNK-luc degradation assay; assay type: cell-based, Homo sapiens
Description: The ORF for CCNK was fused with the firefly luciferase (luc) sequence and inserted into the pCDNA3.1 vector. For setting up cells for co-transfection, 0.6 million 293 T cells were seeded per well in 6-well plates and allowed to attach to plates overnight. These cells were then transfected with 50 ng of pCDNA3.1-3xFLAG-CDK12 kinase domain, 50 ng of pCDNA3.1-CCNK-luc, and 400 ng of the empty pCDNA3.1 vector. Twenty-four hours later, transfected cells were dissociated by trypsin digestion and then plated in 96-well white plates. After overnight attachments, cells were then treated with HQ461 and its analog derivatives for 8 hr followed by measurements of luciferase activity with Bright-Glo luciferase assay system (Promega, Madison, USA). Half maximal CCNK-degradation concentrations (DC50) of HQ461 and its active analogs were interpolated by curve fitting with GraphPad Prism using baseline correction (by normalizing to DMSO control), the asymmetric (five parameter) equation, and least squares fit.

CCNK = assay: Western blotting of CCNK protein level in A549 cells; assay type: cell-based, Homo sapiens; conditions: for effect on HQ461-dependent CCNK degradation: A549 treated with HQ461 plus inhibitor; for CCNK degradation by compound alone: A549; for effect on HQ461-induced CCNK degradation: A549 treated with inhibitor prior to HQ461 treatment
Description: Standard SDS-PAGE and western blotting procedures were used with the following modifications. For preparation of total lysates, cells were rinsed with DPBS to remove residual medium and then lysed in 20 mM HEPES-NaOH, pH 8.0, 10 mM NaCl, 2 mM MgCl2, 1% SDS freshly supplemented with 0.5 units/µL of benzonase and 1x cOmplete, Mini, EDTA-free protease inhibitor cocktail (Roche, Bazel, Switzerland). Protein concentrations of the resulting lysates were quantified by the BCA method. Between 30 to 60 µg of proteins were resolved on SDS-PAGE and transferred to nitrocellulose membranes with a pore size of 0.5 μm. Membranes were blocked in 5% nonfat milk PBST (0.1% v/v Tween-20) for 30 min before blotting with antibodies. The following primary antibodies were used by dilution in 5% nonfat milk PBST: anti-NRF2 (Abcam, Cambridge, UK, ab62352, 1:4,000), anti-β-Actin-HRP (Huaxingbio, Beijing, China, HX18271,1:10,000), anti-α-Tubulin-HRFP (MBL Life Science, Japan, PM054-7, 1:10,000), anti-DDB1 (Abcam, Cambridge, UK, ab109027, 1:10,000), anti-RBX1 (Proteintech, Wuhan, China, 14895–1-AP, 1:5,000), anti-UBE2G1 (Proteintech, Wuhuan, China, 12012–1-AP, 1:2,000), anti-CDK12 (Cell Signaling Technology, Danvers, USA, 11973S,1:4,000), anti-CCNK (Bethyl lab, Montgomery, USA, A301-939A-T,1:4,000), anti-FLAG-HRP (Sigma-Aldrich, MO, USA, A8592, 1:10,000), anti-HA (BioLegend, San Diego, USA, 901533, 1:4,000), anti-RNA polymerase II subunit B1 (phospho CTD Ser-2) clone 3E10 (Sigma-Aldrich, MO, USA, 04–1571, 1:5,000), and anti-RNA polymerase II CTD repeat YSPTSPS antibody clone 8WG16 (Abcam, Cambridge, UK, ab817, 1:5,000). The following HRP-linked secondary antibodies were used by dilution in PBST: anti-rabbit IgG (Cell Signaling Technology, Danvers, USA, 7074S, 1:10,000), anti-mouse IgG (Zsbio, Beijing, China, ZB-2305, 1:10,000), and anti-rat IgG, (Sino Biological, Beijing, China, SSA005, 1:10,000). M5 HiPer ECL Western HRP Substrate (Mei5bio, Beijing, China, MF074-01) was used for the detection of HRP enzymatic activity. Western blot images were taken with a VILBER FUSION FX7 imager.

[1] = molecular target: T1, FLAG-Avi-DDB1 and His-CDK12KD/His-CCNKΔC (WT) (Homo sapiens, UniProt Q9NYV4); assay: AlphaScreen assay, WT; assay type: binding; conditions: preincubated with 5 µM THZ531
T1 construct: Human CDK12KD (residues 715–1052); made in house; host or cells: Sf9 or High Five (CDK12KD/CCNKΔC, co-infected with yeast CAK1); 293F with BirA (FLAG-Avi-DDB1)
T1 sequence (Q9NYV4 715-1052 limits assumed, stated change not applied): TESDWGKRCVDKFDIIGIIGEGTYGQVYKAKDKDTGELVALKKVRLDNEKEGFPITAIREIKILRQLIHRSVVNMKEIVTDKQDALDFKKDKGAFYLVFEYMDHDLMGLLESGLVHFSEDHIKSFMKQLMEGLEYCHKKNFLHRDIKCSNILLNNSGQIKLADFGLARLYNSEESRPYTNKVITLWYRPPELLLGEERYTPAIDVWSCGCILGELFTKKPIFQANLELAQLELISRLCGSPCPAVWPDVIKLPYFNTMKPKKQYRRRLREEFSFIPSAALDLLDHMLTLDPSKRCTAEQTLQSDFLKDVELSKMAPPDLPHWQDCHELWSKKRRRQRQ
T1 sequence (O75909 11-267 partner limits assumed): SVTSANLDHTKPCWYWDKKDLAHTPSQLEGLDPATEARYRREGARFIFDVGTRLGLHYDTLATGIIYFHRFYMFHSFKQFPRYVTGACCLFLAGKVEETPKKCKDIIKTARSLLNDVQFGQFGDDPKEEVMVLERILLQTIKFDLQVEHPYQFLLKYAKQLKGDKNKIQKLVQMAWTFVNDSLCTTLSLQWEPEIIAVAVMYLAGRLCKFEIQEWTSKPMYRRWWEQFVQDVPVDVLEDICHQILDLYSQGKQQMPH
T1 sequence (Q16531 whole entry partner, the tested form may be a part): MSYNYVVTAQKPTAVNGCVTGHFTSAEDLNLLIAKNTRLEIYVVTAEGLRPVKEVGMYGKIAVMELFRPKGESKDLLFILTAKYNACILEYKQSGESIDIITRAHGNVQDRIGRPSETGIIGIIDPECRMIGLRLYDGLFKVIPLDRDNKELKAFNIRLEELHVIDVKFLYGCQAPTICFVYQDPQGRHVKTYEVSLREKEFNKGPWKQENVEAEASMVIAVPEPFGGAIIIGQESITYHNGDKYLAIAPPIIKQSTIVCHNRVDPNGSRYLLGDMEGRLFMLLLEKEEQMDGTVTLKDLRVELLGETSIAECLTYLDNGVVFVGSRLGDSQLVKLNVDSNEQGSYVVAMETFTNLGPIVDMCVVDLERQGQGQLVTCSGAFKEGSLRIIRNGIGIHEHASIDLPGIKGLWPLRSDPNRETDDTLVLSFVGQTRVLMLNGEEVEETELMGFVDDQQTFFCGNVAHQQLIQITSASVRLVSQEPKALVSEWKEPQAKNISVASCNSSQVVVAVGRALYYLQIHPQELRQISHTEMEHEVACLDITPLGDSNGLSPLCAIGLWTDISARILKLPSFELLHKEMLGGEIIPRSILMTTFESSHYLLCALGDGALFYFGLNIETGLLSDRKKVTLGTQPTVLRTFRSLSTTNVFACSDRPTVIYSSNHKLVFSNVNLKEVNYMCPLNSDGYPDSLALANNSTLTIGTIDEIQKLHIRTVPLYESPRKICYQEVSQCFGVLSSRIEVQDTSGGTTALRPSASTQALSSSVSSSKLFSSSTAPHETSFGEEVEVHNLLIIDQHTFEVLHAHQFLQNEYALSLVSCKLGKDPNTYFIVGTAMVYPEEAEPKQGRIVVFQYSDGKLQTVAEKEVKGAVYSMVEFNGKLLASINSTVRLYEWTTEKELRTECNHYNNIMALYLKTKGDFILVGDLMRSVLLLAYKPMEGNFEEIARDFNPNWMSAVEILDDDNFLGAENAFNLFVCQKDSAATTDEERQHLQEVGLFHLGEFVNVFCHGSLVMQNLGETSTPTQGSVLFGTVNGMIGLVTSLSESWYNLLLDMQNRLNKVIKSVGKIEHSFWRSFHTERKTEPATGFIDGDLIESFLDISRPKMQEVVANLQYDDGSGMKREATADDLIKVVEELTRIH
Description: Biotinylated FLAG-Avi-DDB1 (3 µM) and 6xHis-CDK12KD/6xHis-CCNKΔC (WT or G731E/R mutants) (3 µM) were mixed in an assay buffer (50 mM HEPES, pH7.5, 300 mM NaCl, 0.5 mM TCEP, 0.1% NP-40, 0.1% BSA) and a serial dilution of HQ461.The protein-compound mix was transferred to 384-well plates (Corning, Corning, USA); 15 μL per well. After a 1 hr room temperature incubation, 10 µL of nickel chelate (Ni-NTA) acceptor beads (PerkinElmer, Waltham, USA, Waltham, USA, 6760619C) (1:100 diluted with assay buffer) was added per well. After incubation in the dark for 1 hr at room temperature, 10 μL of streptavidin donor beads (PerkinElmer, Waltham, USA, 6760619C) (1:100 diluted in assay buffer) was added per well. After another 1 hr incubation, AlphaScreen signal was measured on the EnVision multimode plate reader (PerkinElmer, Waltham, USA). For THZ531 competition, FLAG-Avi-DDB1, 6xHis-CDK12KD/6xHis-CCNKΔC mix was preincubated with 5 μM of THZ531 for 30 min on ice followed by the procedures described above.

[2] = molecular target: T2, DDB1ΔBPB (DDB1 without its BPB domain) (human, UniProt Q16531-1 1-1140, removing residues 400–704); assay: differential scanning fluorimetry; 5 µM DDB1ΔBPB with 10 µM HBx peptide; SYPRO Orange; 50 mM HEPES pH 7.5, 300 mM NaCl, 0.5 mM TCEP; 10°C to 95°C; conditions: both partners purified
T2 construct: also called Strep-8×His-DDB1ΔBPB
T2 sequence (Q16531 other isoform, or with tags, fused parts or gaps with the stated changes): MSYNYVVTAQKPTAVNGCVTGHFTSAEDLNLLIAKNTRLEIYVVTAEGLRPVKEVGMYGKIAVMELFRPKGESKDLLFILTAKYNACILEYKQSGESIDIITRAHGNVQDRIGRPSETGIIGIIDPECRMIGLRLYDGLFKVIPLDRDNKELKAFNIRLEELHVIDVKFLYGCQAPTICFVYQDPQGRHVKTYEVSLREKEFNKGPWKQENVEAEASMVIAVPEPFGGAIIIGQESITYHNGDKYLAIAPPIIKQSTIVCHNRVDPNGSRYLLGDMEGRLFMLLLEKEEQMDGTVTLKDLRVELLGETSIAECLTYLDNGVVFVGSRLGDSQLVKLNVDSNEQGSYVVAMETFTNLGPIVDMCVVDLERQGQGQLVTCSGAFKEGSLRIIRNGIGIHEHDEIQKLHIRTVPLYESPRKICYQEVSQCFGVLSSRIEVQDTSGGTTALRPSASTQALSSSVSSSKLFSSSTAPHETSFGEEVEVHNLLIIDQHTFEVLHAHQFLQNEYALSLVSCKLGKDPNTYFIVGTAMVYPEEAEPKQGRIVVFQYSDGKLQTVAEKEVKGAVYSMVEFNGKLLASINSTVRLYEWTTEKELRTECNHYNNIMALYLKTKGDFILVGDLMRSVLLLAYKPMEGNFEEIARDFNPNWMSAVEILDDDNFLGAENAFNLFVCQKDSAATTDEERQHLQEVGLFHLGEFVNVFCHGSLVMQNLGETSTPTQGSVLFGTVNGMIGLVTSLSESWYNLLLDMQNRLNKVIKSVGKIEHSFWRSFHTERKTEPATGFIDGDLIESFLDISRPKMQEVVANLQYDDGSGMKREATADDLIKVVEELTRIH

[3] = 293T, 8 hr, read-out: DC50 (half maximal CCNK-degradation concentration)

Row | Molecule | DC50 (CCNK-luc reporter; [3]) [nM] | Dmax (10 μM), percentage of CCNK degradation relative to DMSO control (CCNK-luc reporter; 8 hr) [%] | further results
1 | Cc1cnc(NC(=O)Cc2csc(Nc3cccc(Cl)n3)n2)s1 [HQ002, 2-(2-((6-chloropyridin-2-yl)amino)thiazol-4-yl)-N-(5-methylthiazol-2-yl)acetamide] | 471 |  | 
2 | CC(C)C[C@H](NC(=O)[C@H](Cc1ccccc1)NC(=O)c1cnccn1)B(O)O [bortezomib] |  |  | effect on HQ461-dependent CCNK degradation (CCNK): abrogated HQ461-dependent CCNK degradation
3 | Nc1nc(CC(=O)Nc2nc(-c3ccco3)cs2)cs1 [HQ013, 2-(2-aminothiazol-4-yl)-N-(4-(furan-2-yl)thiazol-2-yl)acetamide] |  | 8.6 | 
4 | NC(=O)c1ccccc1NC(=O)Cc1csc(Nc2ccccn2)n1 [HQ021] |  | 7.8 | 
5 | NC(=O)CNC(=O)Cc1csc(Nc2ccccn2)n1 [HQ022] |  | 25.7 | 
6 | Cc1ccnc(Nc2nc(CC(=O)Nc3nc4c(s3)CCCC4)cs2)c1 [HQ018] |  | 18.8 | 
7 | CCc1cccc(Nc2nc(CC(=O)Nc3ncc(C)s3)cs2)n1 [HQ004, 2-(2-((6-ethylpyridin-2-yl)amino)thiazol-4-yl)-N-(5-methylthiazol-2-yl)acetamide] | 542 |  | 
8 | O=C(Cc1csc(Nc2ccccn2)n1)NCc1nc2ccccc2[nH]1 [HQ020] |  | 15.5 | 
9 | Cc1cnc(NC(=O)Cc2csc(Nc3cccc(N)n3)n2)s1 [HQ007, 2-(2-((6-aminopyridin-2-yl)amino)thiazol-4-yl)-N-(5-methylthiazol-2-yl)acetamide] | 561 |  | 
10 | Cc1cnc(NC(=O)Cc2csc(NC(=O)c3cccc(Br)n3)n2)s1 [HQ014, 6-bromo-N-(4-(2-((5-methylthiazol-2-yl)amino)−2-oxoethyl)thiazol-2-yl) Picolinamide] |  | 9.9 | CCNK degradation activity relative to HQ461 (CCNK-luc reporter): losses in activity
11 | Cc1cccc(Nc2nc(CC(=O)NC(C)c3ccccc3)cs2)n1 (centres unmarked) [HQ015] |  | 8.6 | 
12 | Cc1cnc(NC(=O)Cc2csc(Nc3cccc(Br)n3)n2)s1 [HQ003, 2-(2-((6-bromopyridin-2-yl)amino)thiazol-4-yl)-N-(5-methylthiazol-2-yl)acetamide] | 407 |  | 
13 | Cc1cnc(NC(=O)Cc2csc(Nc3cccc(CO)n3)n2)s1 [HQ005, 2-(2-((6-(hydroxymethyl)pyridin-2-yl)amino)thiazol-4-yl)-N-(5-methylthiazol-2-yl)acetamide] |  | 86.5 | fold increase in potency relative to HQ461 (CCNK-luc reporter): 3 fold; DC50 (CCNK-luc reporter; read-out: DC50): 41 nM
14 | COc1cccc(Nc2nc(CC(=O)Nc3ncc(C)s3)cs2)n1 [HQ006, 2-(2-((6-methoxypyridin-2-yl)amino)thiazol-4-yl)-N-(5-methylthiazol-2-yl)acetamide] | 466 |  | 
15 | CCc1ccccc1NC(=O)Cc1csc(Nc2ccccn2)n1 [HQ023] |  | 3.0 | 
16 | Cc1cnc(NC(=O)Cc2csc(N)n2)s1 [HQ011, 2-(2-aminothiazol-4-yl)-N-(5-methylthiazol-2-yl)acetamide] |  |  | CCNK degradation activity relative to HQ461 (CCNK-luc reporter): losses in activity
17 | Cc1cnc(NC(=O)Cc2csc(Nc3cccc(-n4cccn4)n3)n2)s1 [HQ008, 2-(2-((6-(1H-pyrazol-1-yl)pyridin-2-yl)amino)thiazol-4-yl)-N-(5-methylthiazol-2-yl)acetamide] | 5030 |  | fold increase in DC50 relative to HQ461 (CCNK-luc reporter): 38 fold
18 | Cc1cnc(NC(=O)Cc2csc(Nc3cccc(C(F)(F)F)n3)n2)s1 [HQ009, N-(5-methylthiazol-2-yl)−2-(2-((6-(trifluoromethyl)pyridin-2-yl)amino)thiazol-4-yl)acetamide] | 2360 |  | 
19 | Cc1cnc(NC(=O)Cc2csc(Nc3ccccn3)n2)s1 [HQ010, N-(5-methylthiazol-2-yl)−2-(2-(pyridin-2-ylamino)thiazol-4-yl)acetamide] | 811 |  | fold increase in DC50 relative to HQ461 (CCNK-luc reporter): 6 fold
20 | CN(C)C/C=C/C(=O)Nc1ccc(C(=O)N2CCC[C@@H](Nc3ncc(Cl)c(-c4c[nH]c5ccccc45)n3)C2)cc1 [THZ531] |  |  | effect on HQ461-dependent formation of the CDK12KD/CCNKΔC/DDB1 complex [1]: inhibited HQ461-dependent formation of the CDK12KD/CCNKΔC/DDB1 complex; CCNK degradation by compound alone (CCNK): Neither THZ531 nor dinaciclib treatment caused CCNK degradation; effect on HQ461-induced CCNK degradation (CCNK): prevented CCNK degradation
21 | CC(=O)Nc1nc(CC(=O)Nc2ncc(C)s2)cs1 [HQ019] |  | 62.0 | CCNK degradation activity relative to HQ461 (CCNK-luc reporter): losses in activity
22 | Cc1cccc(Nc2nc(CC(N)=O)cs2)n1 [HQ017] |  | 4.2 | 
23 | CCc1cnn2c(NCc3ccc[n+]([O-])c3)cc(N3CCCC[C@H]3CCO)nc12 [dinaciclib] |  |  | CCNK degradation by compound alone (CCNK): Neither THZ531 nor dinaciclib treatment caused CCNK degradation; effect on HQ461-induced CCNK degradation (CCNK): prevented CCNK degradation
24 | Cc1cnc(NC(=O)Cc2csc(Nc3cccc(F)n3)n2)s1 [HQ001, 2-(2-((6-fluoropyridin-2-yl)amino)thiazol-4-yl)-N-(5-methylthiazol-2-yl)acetamide] | 300 |  | 
25 | NS(=O)(=O)OC[C@@H]1C[C@@H](n2ccc3c(N[C@H]4CCc5ccccc54)ncnc32)C[C@@H]1O [MLN4924] |  |  | effect on HQ461-dependent CCNK degradation (CCNK): abrogated HQ461-dependent CCNK degradation
26 | ILPKVLHKRTLGLS (peptide corresponding to the α-helical motif of hepatitis B virus X protein (HBx); also called HBx peptides; source: synthetic peptide (ChinaPetides, purity 96%)) [HBx peptide (α-helical motif of the hepatitis B virus X protein)] |  |  | increase in Tm [2]: 2 °C

Source: article PMC7462607 (eLife, 2020)
